Reference: US20080299140A1, “Immunogenic Composition and Peptide Sequences for Prevention and Treatment of an Hsv Condition” (priority 2002, published 2008)

Tests used:
[1] = tested on: HLA-DR and HLA-DP molecules; assay: MHC class II binding assays, panel of twelve HLA class II molecules (number of alleles bound); details: number of the twelve class II MHC alleles bound; title: Threshold 600 nM/5 alleles
[2] = tested on: T-cells; assay: Cytokine analysis (IL-2, IL-4, IFN-γ sandwich ELISA); format: cell-based, mice
Method: T-cells were stimulated with either immunizing peptides (10 μg/ml), the irrelevant control peptide (10 μg/ml), UV-inactivated HSV-1 (MOI=3), or with ConA (0.5 μg/ml) as a positive control. Culture media were harvested 48 h (for IL-2) or 96 h (for IL-4 and IFN-γ) later and analyzed by specific sandwich ELISA following the manufacturer's instructions (PharMingen, San Diego, Calif.).

[3] = tested on: lymphocytes obtained from HSV-1 infected H-2^d mice; assay: HSV-primed T-cell responses to gD peptides in HSV-1 infected mice; format: cell-based; details: HSV-1 infected H-2^d mice
Method: Twelve days after the second immunization, spleen and inguinal lymph nodes (LN) were removed and placed into ice-cold serum free HL-1 medium supplemented with 15 mM HEPES, 5×10^−5 M β-mercaptoethanol, 2 mM glutamine, 50 U of penicillin and 50 μg of streptomycin (GIBCO-BRL, Grand Island, N.Y.) (complete medium, CM). The cells were cultured in 96-well plates at 5×10^5 cells/well in CM, with recall or control peptide at 30, 10, 3, 1, or 0.3 μg/ml concentration, as previously described in (BenMohamed et al., 2000 and 2002). The cell suspensions were incubated for 72 h at 37° C. in 5% CO2. One μCi (micro-curie) of (^3H)-thymidine (Dupont MEN, Boston, Mass.) was added to each well during the last 16 h of culture. The incorporated radioactivity was determined by harvesting cells onto glass fiber filters and counted on a Matrix 96 direct ionization-counter (Packard Instruments, Meriden, Conn.). Results were expressed as the mean cpm of cell-associated (^3H)-thymidine recovered from wells containing Ag minus the mean cpm of cell-associated (^3H)-thymidine recovered from wells without Ag (A cpm) (average of triplicate). The Stimulation Index (SI) was calculated as the mean cpm of cell-associated (^3H)-thymidine recovered from wells containing Ag divided by the mean cpm of cell-associated (^3H)-thymidine recovered from wells without Ag (average of triplicate). For all experiments the irrelevant control peptide gB141-165 and the T-cell mitogen Concanavalin A (ConA) (Sigma, St. Louis, Mo.) were used as negative and positive controls, respectively. Proliferation results were confirmed by repeating each experiment twice. A T-cell proliferative response was considered positive when A cpm>1000 and SI>2.
To define the fine specificity of broadly reactive T-cells associated with viral immunity and to explore immunodominance in the context of HSV infection, proliferation of lymphocytes obtained from twenty HSV-1 infected H-2^d mice were evaluated using the twelve gD peptides as Ag (FIG. 6). […] Despite a difference between individual mice, a unique array of T-cell responses was identified for each of the twenty infected mice analyzed.

[4] = T cells treated with Abs to CD4
[5] = T cells treated with Abs to CD8
[6] = splenocyte derived T cells, no Abs, average of triplicates (+/- SD)

## CC[C@H](C)[C@H](N)C(=O)N[C@@H](CS)C(=O)NCC(=O)N[C@H](C(=O)N[C@H](C(=O)N[C@@H](Cc1ccc(O)cc1)C(=O)N[C@@H](Cc1c[nH]c2ccccc12)C(=O)N[C@@H](CCSC)C(=O)N[C@@H](CCCNC(=N)N)C(=O)N[C@@H](CCCNC(=N)N)C(=O)N[C@@H](Cc1c[nH]cn1)C(=O)N[C@H](C(=O)N[C@@H](CCC(N)=O)C(=O)N[C@@H](CCCCN)C(=O)N[C@@H](C)C(=O)N1CCC[C@H]1C(=O)N[C@@H](CCCCN)C(=O)N[C@@H](CCCNC(=N)N)C(=O)N[C@H](C(=O)N[C@@H](CCCNC(=N)N)C(=O)N[C@@H](CC(C)C)C(=O)N1CCC[C@H]1C(=O)N[C@@H](Cc1c[nH]cn1)C(=O)N[C@H](C(=O)N[C@@H](CCCNC(=N)N)C(=O)N[C@@H](CCC(=O)O)C(=O)N[C@@H](CC(=O)O)C(=O)O)[C@@H](C)CC)[C@@H](C)CC)[C@@H](C)O)C(C)C)[C@@H](C)CC [HSV 39]
[1]
  Range: 6
[2]; [4]
  IFNγ, Anti-CD4: 4 (+/−1) ng/ml
  IL-2, Anti-CD4: 36 (+/−1) pg/ml
[2]; [5]
  IFNγ, Anti-CD8: 54 (+/−1) ng/ml
  IL-2, Anti-CD8: 13 (+/−4) pg/ml
[2]; [6]
  IFNγ, None: 179 (+/5−) ng/ml
  IL-2, None: 135 (+/6−) pg/ml
[3]
  immunodominance of epitopes in HSV-primed T-cell responses: immunodominant epitopes
